Measurements: patent publication US9226916B2, “Pyrrolidine derivatives” (HOFFMANN-LA ROCHE INC., priority 2009, dated 2016)
Like-named read-outs stand apart in the source and are kept apart here. One block for each compound: values may come before it.

Target: T1, recombinant human NK3 receptor (Homo sapiens, UniProt P29371)
T1 construct: expressed in transfected cells; host or cells: HEK293 cells, transient expression; membranes
T1 sequence (P29371 1-465): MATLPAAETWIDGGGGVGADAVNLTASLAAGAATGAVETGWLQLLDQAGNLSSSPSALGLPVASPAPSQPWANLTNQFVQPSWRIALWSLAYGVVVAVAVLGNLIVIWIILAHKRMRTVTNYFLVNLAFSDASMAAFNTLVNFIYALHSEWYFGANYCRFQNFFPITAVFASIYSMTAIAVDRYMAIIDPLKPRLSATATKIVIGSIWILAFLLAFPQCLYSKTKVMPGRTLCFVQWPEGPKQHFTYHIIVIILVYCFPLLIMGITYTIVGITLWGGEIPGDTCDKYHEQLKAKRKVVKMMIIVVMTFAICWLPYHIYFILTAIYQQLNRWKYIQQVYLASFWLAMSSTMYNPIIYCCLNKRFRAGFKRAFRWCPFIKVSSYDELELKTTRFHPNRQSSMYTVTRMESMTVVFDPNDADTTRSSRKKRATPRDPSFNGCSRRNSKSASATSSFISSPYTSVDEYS
Assay: [3H]SR142801 competition binding assay

[1] = hNK-3 receptor affinity, membranes from HEK293 cells transiently expressing recombinant human NK3 receptor, [3H]SR142801, Cheng-Prussoff, read-out: Data Ki

Compound: CN(C(=O)Oc1ccc(F)cc1)[C@@H]1CN(C(=O)C2CCN(c3ncc(Cl)cn3)CC2)C[C@H]1c1ccc(Cl)cc1 [Example 184, {(3S,4R)-4-(4-Chloro-phenyl)-1-[1-(5-chloro-pyrimidin-2-yl)-piperidine-4-carbonyl]-pyrrolidin-3-yl}-methyl-carbamic acid 4-fluoro-phenyl ester]
Ki: 6.7 nM

Compound: CN(C(=O)Oc1ccc(F)cc1)[C@@H]1CN(C(=O)C2CCN(c3cc(C#N)ccn3)CC2)C[C@H]1c1ccc(Cl)cc1 [Example 185, [(3S,4R)-4-(4-Chloro-phenyl)-1-(4′-cyano-3,4,5,6-tetrahydro-2H-[1,2′]bipyridinyl-4-carbonyl)-pyrrolidin-3-yl]-methyl-carbamic acid 4-fluoro-phenyl ester]
Ki: 3 nM

Compound: CN(C(=O)Oc1ccc(F)cc1)[C@@H]1CN(C(=O)C2CCN(c3ncccc3C#N)CC2)C[C@H]1c1ccc(Cl)cc1 [Example 186, [(3S,4R)-4-(4-Chloro-phenyl)-1-(3′-cyano-3,4,5,6-tetrahydro-2H-[1,2′]bipyridinyl-4-carbonyl)-pyrrolidin-3-yl]-methyl-carbamic acid 4-fluoro-phenyl ester]
Ki: 6 nM

Compound: CN(C(=O)Oc1ccc(F)cc1)[C@@H]1CN(C(=O)C2CCN(c3cncc(C#N)n3)CC2)C[C@H]1c1ccc(Cl)cc1 [Example 187, {(3S,4R)-4-(4-Chloro-phenyl)-1-[1-(6-cyano-pyrazin-2-yl)-piperidine-4-carbonyl]-pyrrolidin-3-yl}-methyl-carbamic acid 4-fluoro-phenyl ester]
Ki: 2.6 nM

Compound: CN(C(=O)Oc1ccc(F)cc1)[C@@H]1CN(C(=O)C2CCN(c3ncc(C(F)(F)F)cc3Cl)CC2)C[C@H]1c1ccc(Cl)cc1 [Example 188, [(3S,4R)-4-(4-Chloro-phenyl)-1-(3′-chloro-5′-trifluoromethyl-3,4,5,6-tetrahydro-2H-[1,2]bipyridinyl-4-carbonyl)-pyrrolidin-3-yl]-methyl-carbamic acid 4-fluoro-phenyl ester]
Ki: 14.6 nM

Compound: CN(C(=O)Oc1ccc(F)cc1)[C@@H]1CN(C(=O)C2CCN(c3cccc(C#N)n3)CC2)C[C@H]1c1ccc(Cl)cc1 [Example 189, [(3S,4R)-4-(4-Chloro-phenyl)-1-(6′-cyano-3,4,5,6-tetrahydro-2H-[1,2′]bipyridinyl-4-carbonyl)-pyrrolidin-3-yl]-methyl-carbamic acid 4-fluoro-phenyl ester]
Ki: 3.5 nM

Compound: COc1cnc(N2CCC(C(=O)N3C[C@@H](N(C)C(=O)Oc4ccc(F)cc4)[C@H](c4ccc(Cl)cc4)C3)CC2)nc1 [Example 190, {(3S,4R)-4-(4-Chloro-phenyl)-1-[1-(5-methoxy-pyrimidin-2-yl)-piperidine-4-carbonyl]-pyrrolidin-3-yl}-methyl-carbamic acid 4-fluoro-phenyl ester]
Ki: 17.2 nM

Compound: CN(C(=O)Oc1ccc(F)cc1)[C@@H]1CN(C(=O)C2CCN(c3ccncn3)CC2)C[C@H]1c1ccc(Cl)cc1 [Example 191, [(3S,4R)-4-(4-Chloro-phenyl)-1-(1-pyrimidin-4-yl-piperidine-4-carbonyl)-pyrrolidin-3-yl]-methyl-carbamic acid 4-fluoro-phenyl ester]
Ki: 1.2 nM

Compound: CN(C(=O)Oc1ccc(F)cc1)[C@@H]1CN(C(=O)C2CCN(c3ncc(C#N)cn3)CC2)C[C@H]1c1ccc(Cl)cc1 [Example 192, {(3S,4R)-4-(4-Chloro-phenyl)-1-[1-(5-cyano-pyrimidin-2-yl)-piperidine-4-carbonyl]-pyrrolidin-3-yl}-methyl-carbamic acid 4-fluoro-phenyl ester]
Ki: 3.6 nM

Compound: CN(C(=O)Oc1ccc(F)cc1)[C@@H]1CN(C(=O)C2CCN(c3cnc(C#N)cn3)CC2)C[C@H]1c1ccc(Cl)cc1 [Example 193, {(3S,4R)-4-(4-Chloro-phenyl)-1-[1-(5-cyano-pyrazin-2-yl)-piperidine-4-carbonyl]-pyrrolidin-3-yl}-methyl-carbamic acid 4-fluoro-phenyl ester]
Ki: 1.1 nM

Compound: Cc1ccc(N2CCC(C(=O)N3C[C@@H](N(C)C(=O)Oc4ccc(F)cc4)[C@H](c4ccc(Cl)cc4)C3)CC2)nc1 [Example 194, [(3S,4R)-4-(4-Chloro-phenyl)-1-(5′-methyl-3,4,5,6-tetrahydro-2H-[1,2′]bipyridinyl-4-carbonyl)-pyrrolidin-3-yl]-methyl-carbamic acid 4-fluoro-phenyl ester]
Ki: 3.5 nM

Compound: CN(C(=O)Oc1ccc(F)cc1)[C@@H]1CN(C(=O)C2CCN(c3ccc(F)cn3)CC2)C[C@H]1c1ccc(Cl)cc1 [Example 195, [(3S,4R)-4-(4-Chloro-phenyl)-1-(5′-fluoro-3,4,5,6-tetrahydro-2H-[1,2′]bipyridinyl-4-carbonyl)-pyrrolidin-3-yl]-methyl-carbamic acid 4-fluoro-phenyl ester]
Ki: 1.4 nM

Compound: CN(C(=O)Oc1ccc(F)cc1)[C@@H]1CN(C(=O)C2CCN(c3ccc(C(N)=O)cn3)CC2)C[C@H]1c1ccc(Cl)cc1 [Example 196, [(3S,4R)-1-(5′-Carbamoyl-3,4,5,6-tetrahydro-2H-[1,2′]bipyridinyl-4-carbonyl)-4-(4-chloro-phenyl)-pyrrolidin-3-yl]-methyl-carbamic acid 4-fluoro-phenyl ester]
Ki: 2.2 nM

Compound: COc1ccc(N2CCC(C(=O)N3C[C@@H](N(C)C(=O)Oc4ccc(F)cc4)[C@H](c4ccc(Cl)cc4)C3)CC2)nn1 [Example 197, {(3S,4R)-4-(4-Chloro-phenyl)-1-[1-(6-methoxy-pyridazin-3-yl)-piperidine-4-carbonyl]-pyrrolidin-3-yl}-methyl-carbamic acid 4-fluoro-phenyl ester]
Ki: 2.6 nM

Compound: CN(C(=O)Oc1ccc(F)cc1)[C@@H]1CN(C(=O)C2CCN(c3ccc(C#N)nc3)CC2)C[C@H]1c1ccc(Cl)cc1 [Example 198, [(3S,4R)-4-(4-Chloro-phenyl)-1-(6′-cyano-3,4,5,6-tetrahydro-2H-[1,3]bipyridinyl-4-carbonyl)-pyrrolidin-3-yl]-methyl-carbamic acid 4-fluoro-phenyl ester]
Ki: 0.5 nM

Compound: CN(C(=O)Oc1ccc(F)cc1)[C@@H]1CN(C(=O)C2CCN(c3ccc(Cl)cn3)CC2)C[C@H]1c1ccc(Cl)cc1 [Example 199, [(3S,4R)-4-(4-Chloro-phenyl)-1-(5′-chloro-3,4,5,6-tetrahydro-2H-[1,2′]bipyridinyl-4-carbonyl)-pyrrolidin-3-yl]-methyl-carbamic acid 4-fluoro-phenyl ester]
Ki: 0.9 nM

Compound: CN(C(=O)Oc1ccccc1)[C@@H]1CN(C(=O)C2CCN(c3ccc(C#N)cn3)CC2)C[C@H]1c1ccc(Cl)cc1 [Example 200, [(3S,4R)-4-(4-Chloro-phenyl)-1-(5′-cyano-3,4,5,6-tetrahydro-2H-[1,2′]bipyridinyl-4-carbonyl)-pyrrolidin-3-yl]-methyl-carbamic acid phenyl ester]
Ki: 7.2 nM

Compound: COc1ccc(OC(=O)N(C)[C@@H]2CN(C(=O)C3CCN(c4ccc(C#N)cn4)CC3)C[C@H]2c2ccc(Cl)cc2)cc1 [Example 201, [(3S,4R)-4-(4-Chloro-phenyl)-1-(5′-cyano-3,4,5,6-tetrahydro-2H-[1,2′]bipyridinyl-4-carbonyl)-pyrrolidin-3-yl]-methyl-carbamic acid 4-methoxy-phenyl ester]
Ki: 3.3 nM

Compound: Cc1ccc(OC(=O)N(C)[C@@H]2CN(C(=O)C3CCN(c4ccc(C#N)cn4)CC3)C[C@H]2c2ccc(Cl)cc2)cc1 [Example 202, [(3S,4R)-4-(4-Chloro-phenyl)-1-(5′-cyano-3,4,5,6-tetrahydro-2H-[1,2′]bipyridinyl-4-carbonyl)-pyrrolidin-3-yl]-methyl-carbamic acid p-tolyl ester]
Ki: 4.3 nM

Compound: CN(C(=O)Oc1ccc(Cl)cc1)[C@@H]1CN(C(=O)C2CCN(c3ccc(C#N)cn3)CC2)C[C@H]1c1ccc(Cl)cc1 [Example 203, [(3S,4R)-4-(4-Chloro-phenyl)-1-(5′-cyano-3,4,5,6-tetrahydro-2H-[1,2′]bipyridinyl-4-carbonyl)-pyrrolidin-3-yl]-methyl-carbamic acid 4-chloro-phenyl ester]
Ki: 0.3 nM

Ki [1]: 41.2 nM
Compound: CN(C(=O)OC1CCCC1)[C@@H]1CN(C(=O)C2CCN(c3ccc(C#N)cn3)CC2)C[C@H]1c1ccc(Cl)cc1 [Example 204, [(3S,4R)-4-(4-Chloro-phenyl)-1-(5′-cyano-3,4,5,6-tetrahydro-2H-[1,2′]bipyridinyl-4-carbonyl)-pyrrolidin-3-yl]-methyl-carbamic acid cyclopentyl ester]

Compound: CN(C(=O)OCC(C)(C)C)[C@@H]1CN(C(=O)C2CCN(c3ccc(C#N)cn3)CC2)C[C@H]1c1ccc(Cl)cc1 [Example 205, [(3S,4R)-4-(4-Chloro-phenyl)-1-(5′-cyano-3,4,5,6-tetrahydro-2H-[1,2′]bipyridinyl-4-carbonyl)-pyrrolidin-3-yl]-methyl-carbamic acid 2,2-dimethyl-propyl ester]
Ki: 5.7 nM

Ki [1]: 90.6 nM
Compound: COCCOC(=O)N(C)[C@@H]1CN(C(=O)C2CCN(c3ccc(C#N)cn3)CC2)C[C@H]1c1ccc(Cl)cc1 [Example 206, [(3S,4R)-4-(4-Chloro-phenyl)-1-(5′-cyano-3,4,5,6-tetrahydro-2H-[1,2′]bipyridinyl-4-carbonyl)-pyrrolidin-3-yl]-methyl-carbamic acid 2-methoxy-ethyl ester]

Compound: CN(C(=O)Oc1ccc(C(F)(F)F)cc1)[C@@H]1CN(C(=O)C2CCN(c3ccc(C#N)cn3)CC2)C[C@H]1c1ccc(Cl)cc1 [Example 207, [(3S,4R)-4-(4-Chloro-phenyl)-1-(5′-cyano-3,4,5,6-tetrahydro-2H-[1,2′]bipyridinyl-4-carbonyl)-pyrrolidin-3-yl]-methyl-carbamic acid 4-trifluoromethyl-phenyl ester]
Ki: 0.6 nM
